Patent publication US20110152317A1, “P[…] OCCURRENCE OF OBESITY” (DUKE UNIVERSITY, priority 2008, published 2011)

Columns and labels:
[1] = tested on: male C57BL/6 mice on a high-fat diet; test: Chloroquine injection in mice on high-fat diet (obesity, insulin resistance, skeletal muscle lipid profiling); assay type: in vivo, mouse; conditions: high-fat diet (60% of calories from fat), 60 mg/kg intraperitoneal daily for 12 weeks
From the text: Five adult (12 week old) male C57BL/6 mice (The Jackson Laboratory, Bar Harbor, ME) were subjected to 12 weeks of high-fat diet (HF) (60% of calories from fat) with a separate group of five mice on normal chow (NC) for the same duration as control. A significant difference in body weight between NC and HF mice was detected 4 weeks after implementation of the high-fat diet, and the body weight of the HF group continued to increase to about 55.4% above the value in age matched NC mice after 12 weeks of the high-fat diet. […] NC mice. The development of severe obesity in HF mice was accompanied by 89.0% increase (P<0.001) in blood glucose area under curve (AUC) during a glucose tolerance test. These findings indicate that high-fat diet in adult mice induced severe obesity and insulin resistance.
Five of the same kind of non-obese mice as used in Background Example 1 on a high-fat diet (60% of calories from fat) were injected with chloroquine (60 mg/kg, intraperitoneal) daily for 12 weeks of high-fat diet feeding.

[2] = tested on: human on high-fat diet; test: Oral chloroquine in a human on a high-fat diet (Working Example I); assay type: in vivo; conditions: person, 400 mg orally daily, 12 weeks
Description: A person with BMI of 20 eats a diet where 50% of calories come from fat, e.g. cheeseburgers or steak, onion rings or french fries, and ice cream or pecan pie for dessert at dinner, cold cut sandwich and fries or pizza for lunch, eggs, sausage, hash browns for breakfast. The subject also orally takes 400 mg chloroquine orally daily. The regimen is continued for 12 weeks.

## CCN(CC)CCCC(C)Nc1ccnc2cc(Cl)ccc12 (centres unmarked) [chloroquine]
[1]
  high-fat diet induced changes in skeletal muscle (mass spectrometry-based profiling of lipid species): blocked high-fat diet induced changes in skeletal muscle
  occurrence of insulin resistance (glucose tolerance test): blocked the occurrence of obesity and insulin resistance
  occurrence of obesity: blocked the occurrence of obesity
[2]; baseline BMI 20, diet 50% of calories from fat
  BMI: 20
[2]; diet 50% of calories from fat
  development of insulin resistance: does not develop insulin resistance
